PMC11092803, “Heme allocation in eukaryotic cells relies on mitochondrial heme export through FLVCR1b to cytosolic GAPDH” (Research Square, 2024)

Biological target: T1, IDO1 (Homo sapiens, UniProt P14902)
T1 construct: full-length with FLAG tag, expressed in HEK293T cells; immunoprecipitated for 14C-heme count
Experiment: L-kynurenine in culture medium, p-dimethylaminobenzaldehyde colorimetry at […] nm
Format: cell-based
Conditions: intact HEK293T cells expressing IDO1; L-Trp 2 mM, with or without δ-ALA and ferric citrate, 5 h

T1 sequence (P14902 whole entry): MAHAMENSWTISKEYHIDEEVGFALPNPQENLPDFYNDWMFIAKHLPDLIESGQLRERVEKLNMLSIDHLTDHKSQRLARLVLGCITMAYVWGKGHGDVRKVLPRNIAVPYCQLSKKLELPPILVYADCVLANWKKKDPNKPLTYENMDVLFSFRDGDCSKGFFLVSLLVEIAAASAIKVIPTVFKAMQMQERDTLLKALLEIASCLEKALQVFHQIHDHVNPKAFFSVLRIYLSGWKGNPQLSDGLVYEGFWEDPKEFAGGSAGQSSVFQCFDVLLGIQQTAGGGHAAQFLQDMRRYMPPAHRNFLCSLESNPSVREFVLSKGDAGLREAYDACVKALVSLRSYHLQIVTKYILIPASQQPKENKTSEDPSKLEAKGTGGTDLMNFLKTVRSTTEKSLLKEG

With N[C@@H](Cc1c[nH]c2ccccc12)C(=O)O [L-Trp] the “L-kynurenine in culture medium, p-dimethylaminobenzaldehyde colorimetry at 492 n” value was “IDO1 activity was determined by colorimetric measure of the accumulated L-Kynurenine product”.
